Activity calls are given as the source filed them. The rule behind the calls is not given here. Numbered stars: 1 amine (or outer) side, 2 acyl side, 3 side chain; on linkers, the order of the positions; unused ones are H or OH. Square brackets hold non-standard residues; d marks the D form. Peptide text beside a SMILES is read from it. * marks the point of attachment. Doxorubicin(3'-N) = COc1cccc2c1C(=O)c1c(O)c3c(c(O)c1C2=O)C[C@@](O)(C(=O)CO)C[C@@H]3O[C@H]1C[C@H](N*)[C@H](O)[C@H](C)O1; Mal(S(CH2)2NH)(CH2)5CO = O=C1CC(SCCN[*:1])C(=O)N1CCCCCC(=O)[*:2]
Key:
[1] = test system: MDA-MB-231; assay: Cytotoxicity against human MDA-MB-231 cells assessed as cell viability after 48 hrs by MTT assay; assay type: functional, cell-based; conditions: for IC50: MDA-MB-231, 48 h
[2] = Drug uptake in nucleus of human MDA-MB-231 cells at 10 uM after 18 hrs by DAPI staining-based confocal laser scanning microscopic analysis; assay type: ADME, cell-based; conditions: mda-mb-231, 18 h
[3] = Drug uptake in cytoplasm of human MDA-MB-231 cells at 10 uM after 18 hrs by DAPI staining-based confocal laser scanning microscopic analysis; assay type: ADME, cell-based; conditions: mda-mb-231, 18 h
[4] = Octanol-water partition coefficient, log P of the compound at 100 ug after 3 hrs by shake-flask method; assay type: physicochemical
[5] = Retention time of the compound treated with (6S,9S,12S,15S,18S)-1,6-diamino-12-(2-carboxyethyl)-9-(carboxymethyl)-18-(2-(1-(6-((2S,3S,4S,6R)-3-hydroxy-2-methyl-6-((1S,3S)-3,5,12-trihydroxy-3-(2-hydroxyacetyl)-10-methoxy-6,11-dioxo-1,2,3,4,6,11-hexahydrotetracen-1-yloxy)tetrahydro-2H-pyran-4-ylamino)-6-oxohexyl)-2,5-dioxopyrrolidin-3-ylthio)ethylcarbamoyl)-1-imino-15-isopropyl-7,10,13,16-tetraoxo-2,8,11,14,17-pentaazaicosan-20-oic acid at 100 uM by HPLC analysis in presence of recombinant human caspase-3; assay type: physicochemical
[6] = test system: MDA-MB-231; assay: Induction of apoptosis in human MDA-MB-231 cells assessed as upregulation of cleaved caspase-3 expression after 48 hrs by Western blot analysis; assay type: functional, cell-based
[7] = test system: MDA-MB-231; assay: Induction of apoptosis in human MDA-MB-231 cells assessed as downregulation of procaspase-3 expression at 1 to 100 uM after 48 hrs by Western blot analysis; assay type: functional, cell-based
[8] = test system: Mus musculus; assay: Toxicity in Balb-c/nu mouse allografted with mouse SCC7 cells assessed as mortality at 5 mg/kg, iv administered daily measured within 6 days; assay type: organism-based, SCC-7; conditions: in vivo, 144 h
[9] = Retention time of the compound at 100 uM after 60 mins by HPLC analysis in absence of recombinant human caspase-3; assay type: physicochemical; conditions: 1 h
[10] = Prodrug conversion assessed as 6-(3-(2-aminoethylthio)-2,5-dioxopyrrolidin-1-yl)-N-((2S,3S,4S,6R)-3-hydroxy-2-methyl-6-((1S,3S)-3,5,12-trihydroxy-3-(2-hydroxyacetyl)-10-methoxy-6,11-dioxo-1,2,3,4,6,11-hexahydrotetracen-1-yloxy)tetrahydro-2H-pyran-4-yl)hexanamide formation at 100 uM after 60 mins by HPLC analysis in absence of recombinant human caspase-3; assay type: physicochemical; conditions: 1 h
[11] = Stability of the compound at 100 uM after 60 mins by HPLC analysis in absence of recombinant human caspase-3; assay type: physicochemical; conditions: 1 h
[12] = biological target: T1, Caspase-3 (Homo sapiens, UniProt P42574); assay: Prodrug conversion assessed as recombinant human caspase-3-mediated compound 8 formation at 100 uM after 60 mins by HPLC analysis in presence of caspase-3 inhibitor Ac-DEVD-CHO; assay type: ADME; conditions: 1 h
T1 sequence (P42574 whole entry): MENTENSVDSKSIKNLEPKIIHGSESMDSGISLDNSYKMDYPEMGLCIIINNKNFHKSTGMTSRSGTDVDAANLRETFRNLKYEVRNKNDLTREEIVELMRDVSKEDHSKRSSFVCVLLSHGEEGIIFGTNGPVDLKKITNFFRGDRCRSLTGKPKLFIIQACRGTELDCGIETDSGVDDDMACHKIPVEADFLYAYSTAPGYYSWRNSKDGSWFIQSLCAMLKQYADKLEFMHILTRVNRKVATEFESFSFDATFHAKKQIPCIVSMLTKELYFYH

[13] = test system: MDA-MB-231; assay: Cytotoxicity against human MDA-MB-231 cells assessed as cell viability up to 10 uM after 48 hrs by MTT assay in absence of recombinant human caspase-3; assay type: functional, cell-based
[14] = test system: MDA-MB-231; assay: Cytotoxicity against human MDA-MB-231 cells assessed as cell viability at 100 uM after 48 hrs by MTT assay in absence of recombinant human caspase-3; assay type: functional, cell-based
[15] = test system: MDA-MB-231; assay: Cytotoxicity against human MDA-MB-231 cells assessed as cell viability at 0.1 to 100 uM after 48 hrs by MTT assay in presence of recombinant human caspase-3; assay type: functional, cell-based
[16] = Drug uptake in nucleus of human MDA-MB-231 cells assessed as doxorubicin moiety level at 100 uM using cyanine5.5-labeled compound after 1 hr by DAPI staining-based confocal laser scanning microscopic analysis in presence of recombinant human caspase-3; assay type: ADME, cell-based; conditions: mda-mb-231, 1 h
[17] = Drug uptake in cytoplasm of human MDA-MB-231 cells assessed as DEVD moiety level at 100 uM using cyanine5.5-labeled compound after 1 hr by DAPI staining-based confocal laser scanning microscopic analysis in presence of recombinant human caspase-3; assay type: ADME, cell-based; conditions: mda-mb-231, 1 h
[18] = test system: MDA-MB-231; assay: Cytotoxicity against human MDA-MB-231 cells assessed as decrease in cell viability at 5 uM with 5 Gy linear X-ray treatment after 24 hrs by MTT assay; assay type: functional, cell-based
[19] = test system: MDA-MB-231; assay: Cytotoxicity against human MDA-MB-231 cells assessed as decrease in cell viability at 5 uM with 5 Gy linear X-ray treatment measured at 48 hrs by MTT assay (reference value: 53%); assay type: functional
[20] = Drug uptake in nucleus of human MDA-MB-231 cells assessed as doxorubicin moiety level at 5 uM preincubated for 24 hrs followed by exposure to 5 Gy linear X-ray measured at 6 hrs by DAPI staining-based fluorescence microscopic analysis; assay type: ADME, cell-based; conditions: mda-mb-231, 6 h
[21] = Drug uptake in nucleus of human MDA-MB-231 cells assessed as doxorubicin moiety level at 5 uM preincubated for 24 hrs followed by exposure to 5 Gy linear X-ray measured at 24 hrs by DAPI staining-based fluorescence microscopic analysis; assay type: ADME, cell-based; conditions: mda-mb-231, 24 h
[22] = test system: MDA-MB-231; assay: Induction of apoptosis in human MDA-MB-231 cells assessed as change in cell morphology at 5 uM preincubated for 24 hrs followed by exposure to 5 Gy linear X-ray measured after 6 to 24 hrs by DAPI staining-based fluorescence microscopic analysis; assay type: functional
[23] = test system: MDA-MB-231; assay: Induction of apoptosis in human MDA-MB-231 cells assessed as upregulation of cleaved caspase-3 expression at 1 to 100 uM pretreated with X-ray measured after 24 to 72 hrs by Western blot analysis; assay type: functional, cell-based
[24] = test system: MDA-MB-231; assay: Induction of apoptosis in human MDA-MB-231 cells assessed as upregulation of cleaved caspase-3 expression preincubated with recombinant human caspase-3 measured after 48 hrs by Western blot analysis; assay type: functional, cell-based
[25] = test system: MDA-MB-231; assay: Induction of apoptosis in human MDA-MB-231 cells assessed as downregulation of procaspase-3 expression at 1 to 100 uM preincubated with recombinant human caspase-3 measured after 48 hrs by Western blot analysis; assay type: functional, cell-based
[26] = test system: MDA-MB-231; assay: Induction of apoptosis in human MDA-MB-231 cells assessed as upregulation of cleaved caspase-3 expression up to 100 uM after 48 hrs by Western blot analysis; assay type: functional, cell-based
[27] = Antitumor activity against mouse SCC7 cells allografted in Balb-c/nu mouse assessed as tumor growth inhibition at 5 mg/kg molar equivalent of doxorubicin, iv administered daily for 7 days without X-ray treatment relative to control; assay type: functional, SCC-7
[28] = Antitumor activity against mouse SCC7 cells allografted in Balb-c/nu mouse assessed as tumor growth inhibition at 5 mg/kg molar equivalent of doxorubicin, iv administered daily for 7 days with 10 Gy X-ray treatment on first day of drug administration (reference value: 54%); assay type: functional, SCC-7
[29] = test system: Mus musculus; assay: Toxicity in Balb-c/nu mouse allografted with mouse SCC7 cells assessed as decrease in body weight at 5 mg/kg molar equivalent of doxorubicin, iv administered daily for 7 days with 10 Gy X-ray treatment on first day of drug administration measured until day 14; assay type: organism-based, SCC-7; conditions: in vivo, 168 h
[30] = test system: Mus musculus; assay: Toxicity in Balb-c/nu mouse allografted with mouse SCC7 cells assessed as decrease in body weight at 5 mg/kg molar equivalent of doxorubicin, iv administered daily for 7 days without X-ray treatment measured until day 14; assay type: organism-based, SCC-7; conditions: in vivo, 168 h
[31] = test system: Mus musculus; assay: Toxicity in Balb-c/nu mouse allografted with mouse SCC7 cells assessed as mortality at 5 mg/kg molar equivalent of doxorubicin, iv administered daily for 7 days measured until day 14; assay type: organism-based, SCC-7; conditions: in vivo, 168 h

SMILES: COc1cccc2c1C(=O)c1c(O)c3c(c(O)c1C2=O)C[C@@](O)(C(=O)CO)C[C@@H]3O[C@H]1C[C@H](NC(=O)c2cccc(N3C(=O)CC(SCCN)C3=O)c2)[C@H](O)[C@H](C)O1 (some centres not stated)
- IC50 [1]: > 100 µM
- Drug uptake [2]: Active
- Drug uptake [3]: Active
- logP at 3 h [4]: -0.121

SMILES: COc1cccc2c1C(=O)c1c(O)c3c(c(O)c1C2=O)C[C@@](O)(C(=O)CO)C[C@@H]3O[C@H]1C[C@H](NC(=O)CN2C(=O)CC(SCCN)C2=O)[C@H](O)[C@H](C)O1 (some centres not stated)
- IC50 [1]: > 100 µM
- Drug uptake [2]: Active
- Drug uptake [3]: Active
- logP at 3 h [4]: -1.04

SMILES: COc1cccc2c1C(=O)c1c(O)c3c(c(O)c1C2=O)C[C@@](O)(C(=O)CO)C[C@@H]3O[C@H]1C[C@H](NC(=O)CCCCCN2C(=O)CC(SCCN)C2=O)[C@H](O)[C@H](C)O1 (some centres not stated)
- IC50 [1]: 4.6 µM
- Drug uptake [2]: Active
- Retention_time [5]: 20.6 min
- logP at 3 h [4]: -0.383
- Activity [6]: Dose-dependent effect
- Activity [7]: Active

SMILES: COc1cccc2c1C(=O)c1c(O)c3c(c(O)c1C2=O)C[C@@](O)(C(=O)CO)C[C@@H]3O[C@H]1C[C@H](N)[C@H](O)[C@H](C)O1 [DOXORUBICIN]
- Drug uptake [2]: Active
- Activity [8]: Toxic

SMILES: COc1cccc2c1C(=O)c1c(O)c3c(c(O)c1C2=O)C[C@@](O)(C(=O)CO)C[C@@H]3O[C@H]1C[C@H](NC(=O)CCCc2ccc(N3C(=O)CC(SCCN)C3=O)cc2)[C@H](O)[C@H](C)O1 (some centres not stated)
- IC50 [1]: > 100 µM
- Drug uptake [2]: Active
- Drug uptake [3]: Active
- logP at 3 h [4]: 0.313

SMILES: COc1cccc2c1C(=O)c1c(O)c3c(c(O)c1C2=O)C[C@@](O)(C(=O)CO)C[C@@H]3O[C@H]1C[C@H](NC(=O)C2CCC(CN3C(=O)CC(SCCN)C3=O)CC2)[C@H](O)[C@H](C)O1 (some centres not stated)
- Activity [1]: Dose-dependent effect
- IC50 [1]: > 100 µM
- Drug uptake [2]: Active
- Drug uptake [3]: Active
- logP at 3 h [4]: -0.022

SMILES: COc1cccc2c1C(=O)c1c(O)c3c(c(O)c1C2=O)C[C@@](O)(C(=O)CO)C[C@@H]3O[C@H]1C[C@H](NC(=O)CCCCCN2C(=O)CC(SCCNC(=O)[C@H](CC(=O)O)NC(=O)[C@@H](NC(=O)[C@H](CCC(=O)O)NC(=O)[C@H](CC(=O)O)NC(=O)[C@@H](N)CCCNC(=N)N)C(C)C)C2=O)[C@H](O)[C@H](C)O1 (some centres not stated) (H-RDEVD[Mal(S(CH2)2NH)(CH2)5CO]-{Doxorubicin(3'-N)})
- Drug uptake [2]: Active
- Drug uptake [3]: Active
- Retention_time [9]: 21.4 min
- Drug metabolism [10]: metabolite_notdetected
- Stability [11]: Unstable
- Drug metabolism [12]: metabolite_notdetected
- Activity [13]: inactive
- Activity [14]: Active
- Activity [15]: Active
- Drug uptake [16]: Active
- Drug uptake [17]: Active
- Activity [18]: inactive
- Activity [19]: 75%
- Drug uptake [20]: Not Active
- Drug uptake [21]: Active
- Activity [22]: Active
- Activity [23]: Active
- Activity [24]: Dose-dependent effect
- Activity [25]: Active
- Activity [26]: inactive
- TGI [27]: 15%
- TGI [28]: 79%
- Activity [29]: Non-toxic
- Activity [30]: Non-toxic
- Activity [31]: Non-toxic

SMILES: COc1cccc2c1C(=O)c1c(O)c3c(c(O)c1C2=O)C[C@@](O)(C(=O)CO)C[C@@H]3O[C@H]1CC(NC(=O)C2CCC(CN3C(=O)CC(SC[C@H](N)C(=O)O)C3=O)CC2)[C@H](O)[C@H](C)O1 (single isomer, unassigned)
- Drug uptake [2]: Not Active
- Drug uptake [3]: Active
